Experimental data published in US20170112791A1, “SOLID FORMULATIONS CONTAINING OMEGA-3 AND RESVERATROL” (SIGMA-TAU INDUSTRIE FARMACEUTICHE RIUNITE S.P.A., priority 2014, published 2017).

How the values were obtained:
[1] = Stability after autoxidation induced by radiation (light, 24 hours); format: physicochemical; settings: initial tests (Tables 2 and 3: radiation and high temperature)
Protocol: (§1) The HPLC Analysis was the analysis performed in order to evaluate the stability of the formulations. It was performed using a Column Symmetry C-18 4.6×150 mm, a solution of CH3CN/CH3OH/H2O 45/45/10 as eluent, a flow of 1 ml/min and a Mass spectrometry Detector. The percent amount of EPA and DHA detected are expressed as % by weight. Other stability tests were also performed:
Stability analysis after autoxidation induced by radiation and by high temperature was performed according to the following procedure: • Autoxidation induced by radiation: an amount of 100 mg of the formulation is dispersed in a 5 cm diameter Petri dish, which is placed at a distance of 12 cm from the light source and exposed to light for 24 hours. The light source is constituted by a 13 W lamp with an emission spectrum of from 300 to 640 nm, with peaks at: 440, 490, 540, 590 and 610 nm. The test is carried out at 22° C. at 60% RH • autoxidation induced by high temperature: an amount of 100 mg of the formulation is placed in an amber container and put in a stove at 60° C. for 1 month

[2] = Stability analysis of solid formulations on storage (HPLC recovery of EPA and DHA); format: physicochemical
Protocol: The formulations were divided into 3 groups and left respectively for 3 and 6 months at 25° C. at 60% RH (relative humidity), for 3 and 6 months at 30° C. at 60% RH or for 3 and 6 months at 40° C. at 70% RH.
as §1
n-3 PUFA were added to Neusilin U.S.-2 in small portions, manually mixing up to obtain a homogeneous solid. Stability tests are carried out at 25° C. at 60% RH, 30° C. at 60% RH and 40° C. at 70% RH as described above for 1, 3 and 6 months.

antioxidant power with respect of that of α-tocopherol ([2]; from recovery after 3 months at 40° C., 1% antioxidant)	Compound	improvement of stability of EPA and DHA in the initial tests [1]	ability to maintain stable solid formulations containing omega-3 for longer periods ([2]; data of Table 4, 3 months)
	COC1=C(OC)C(=O)C(C/C=C(\C)CC/C=C(\C)CC/C=C(\C)CC/C=C(\C)CC/C=C(\C)CC/C=C(\C)CC/C=C(\C)CC/C=C(\C)CC/C=C(\C)CCC=C(C)C)=C(C)C1=O [Coenzyme Q10]	able to improve the stability	
	Cc1c(C)c2c(c(C)c1O)CC[C@@](C)(CCC[C@H](C)CCC[C@H](C)CCCC(C)C)O2 [α-tocopherol]	able to improve the stability	
twice	Oc1ccc(/C=C/c2cc(O)cc(O)c2)cc1 [Resveratrol, 3,5,4′-trihydroxy-trans-stilbene]	able to improve the stability	the only natural antioxidant able to maintain stable solid formulations containing omega-3 for longer periods
	CCCCCCCCCCCCCCCC(=O)OC[C@H](O)[C@H]1OC(=O)C(O)=C1O [Ascorbyl palmitate, ascorbyl palmitate]	able to improve the stability	
